Measurements published in publication PMC10648349, “Aromatic Diboronic Acids as Effective KPC/AmpC Inhibitors” (Molecules, 2023).
Converted amounts (≈) assume the structure as drawn. Like-named read-outs stand apart in the source and are kept apart here.

Key:
[1] = system: E. coli 77 CMY-2-positive; test: checkerboard microdilution, antibiotic plus tested agent; type: cell-based, Escherichia coli
How it was run: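 Read-out is the antibiotic MIC with agent present, plus FICI = combined/alone MIC ratios summed for both partners. Meropenem pairs served for carbapenemase strains and ceftazidime pairs for the AmpC strain. Agent or PBA was tested at 4–16 mg/L.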

[2] = MTT-based viability assay; type: cell-based; details: human
How it was run: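 Percent viable cells relative to control, measured in triplicate by MTT read-out at 570 nm. Cells: MRC-5 human fibroblasts cultured at 37 °C, 5% CO2 in MEME plus 10% FBS.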

[3] = system: K. pneumoniae ATCC BAA 1705 KPC-2-positive; test: combination disc test CDT-KPC; type: cell-based; details: Klebsiella pneumoniae
[4] = system: P. aeruginosa MUW 700 cAmpC-positive; test: combination disc test CDT-AmpC; type: cell-based; details: Pseudomonas aeruginosa, read-out: Diameter of inhibition zone, CAZ-30 disc with agent
[5] = system: E. coli 77 CMY-2-positive; test: combination disc test CDT-AmpC; type: cell-based; details: Escherichia coli, read-out: Diameter of inhibition zone, CAZ-30 disc with agent
C. tropicalis IBA 171 = test: antifungal activity (disc-diffusion, MIC, MFC); type: cell-based; details: Candida tropicalis, IBA171; for MIC: fluconazole by Etest
How it was run: (§1)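 EUCAST/CLSI methods: disc diffusion at 0.4 mg compound/disc, broth MIC, then MBC (bacteria) or MFC (yeast). DMSO vehicle.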

S. cerevisiae ATCC 9763 = test: antifungal activity (disc-diffusion, MIC, MFC); type: cell-based; details: Saccharomyces cerevisiae, ATCC9763; for MIC: fluconazole by Etest; for zone of inhibition at 0.4 mg/disc: 0.4 mg per disc, 9 mm disc (fluconazole 0.025 mg, 6 mm disc), - no zone, read-out: Diameter of inhibition zone
How it was run: as §1

C. tropicalis ATCC 750 = test: antifungal activity (disc-diffusion, MIC, MFC); type: cell-based; details: Candida tropicalis, ATCC750; for MIC: fluconazole by Etest
How it was run: as §1

C. albicans ATCC 90028 = test: antifungal activity (disc-diffusion, MIC, MFC); type: cell-based; details: Candida albicans, ATCC90028; for MIC: fluconazole by Etest
How it was run: as §1

E. faecium ATCC 6057 = test: direct antimicrobial activity (disc-diffusion, MIC, MBC); type: cell-based; details: Enterococcus faecium, ATCC6057
How it was run: as §1

[6] = system: S. aureus ATCC 43300 MRSA; test: as above; type: cell-based; details: Staphylococcus aureus
How it was run: as §1

E. faecalis ATCC 29212 = test: as above; type: cell-based; details: Enterococcus faecalis, ATCC29212
How it was run: as §1

[7] = system: S. epidermidis ATCC 12228; test: as above; type: cell-based; details: Staphylococcus epidermidis, ATCC12228
How it was run: as §1

S. aureus ATCC 6538P = test: as above; type: cell-based; details: Staphylococcus aureus, ATCC6538P
How it was run: as §1

C. krusei ATCC 6258 = test: antifungal activity (disc-diffusion, MIC, MFC); type: cell-based, Candida krusei; details: Pichia kudriavzevii, ATCC6258; for MIC: fluconazole by Etest
How it was run: as §1

[8] = system: P. aeruginosa MUW 700 cAmpC-positive; test: checkerboard microdilution, antibiotic plus tested agent; type: cell-based, Pseudomonas aeruginosa
Protocol: To examine the ability of tested agents to inhibit various carbapenemases and AmpC-enzymes, their synergy with antibiotics against β-lactamase-producing strains was assessed by checkerboard microdilution assay, with slight modification. Checkerboards were prepared in microtiter plates, with seven two-fold dilutions of β-lactams (1–64 mg/L) in the rows and three two-fold dilutions of tested agents and PBA (4–16 mg/L) in the columns. Tested agents’ concentrations were limited to the concentrations at which the newest commercially available BLIs (vaborbactam, relebactam, and avibactam) are used in susceptibility testing. Plates were inoculated and incubated as in the MIC microdilution assay. Parallel, MICs of tested agents and PBA alone were determined by the microdilution assay. Following the incubation, antibiotic MICs in the presence of each agent’s concentration were determined. Moreover, for the first well without growth found in each checkerboard row and column along the growth/non-growth interface, the fractional inhibitory concentration index (FICI) was calculated using the formula below:FICI = [(MIC of antibiotic in combination)/(MIC of antibiotic alone)] + [(MIC of the tested agent in combination)/(MIC of tested agent alone)].
For calculations, all off-scale MICs were converted to the next-highest doubling concentration. Subsequently, both the average and the lowest FICI were interpreted. The interpretation was as follows: FICI ≤ 0.5, synergy; 0.5 < FICI ≤ 4, indifference and FICI > 4, antagonism. Primarily, examined combinations consisted of meropenem (Pol-Aura, Morag, Poland) plus tested agents against carbapenemases-producing strains and ceftazidime (Pol-Aura, Morag, Poland) plus tested agents against AmpC-producing strains. For agents that reduced meropenem MIC at least 4-fold for at least two tested strains, similar assays were performed with imipenem (Pol-Aura, Morag, Poland) and ertapenem (Pol-Aura, Morag, Poland).

[9] = system: C. parapsilosis ATCC 22019; test: antifungal activity (disc-diffusion, MIC, MFC); type: cell-based, Candida parapsilosis; details: Lodderomyces parapsilosis, ATCC22019; for MIC: fluconazole by Etest
How it was run: as §1

[10] = MRC-5 human fibroblasts, 12.5 mg/L, 72 h, read-out: Viability of MRC-5 cells (% of viable cells ± SD)
[11] = MRC-5 human fibroblasts, 25 mg/L, 72 h, read-out: Viability of MRC-5 cells (% of viable cells ± SD)
[12] = MRC-5 human fibroblasts, 50 mg/L, 72 h, read-out: Viability of MRC-5 cells (% of viable cells ± SD)
[13] = 0.4 mg per disc, 9 mm disc (linezolid 0.03 mg, 6 mm disc), - no zone, read-out: Diameter of inhibition zone
[14] = 0.4 mg per disc, 9 mm disc (fluconazole 0.025 mg, 6 mm disc), - no zone, read-out: Diameter of inhibition zone

| SMILES | Average FICI with ceftazidime [1] | The lowest FICI with ceftazidime [1] | viability at 72 h, 12.5 mg/L [2, 10] [%] | viability at 72 h, 25 mg/L [2, 11] [%] | viability at 72 h, 50 mg/L [2, 12] [%] | MIC (C. tropicalis IBA 171) [µg/mL] | MIC (S. cerevisiae ATCC 9763) [µg/mL] | MIC (C. tropicalis ATCC 750) [µg/mL] | MIC (C. albicans ATCC 90028) [µg/mL] | MIC (E. faecium ATCC 6057) [µg/mL] | MIC [6] [µg/mL] | MIC (E. faecalis ATCC 29212) [µg/mL] | MIC [7] [µg/mL] | MIC (S. aureus ATCC 6538P) [µg/mL] | MIC (C. krusei ATCC 6258) [µg/mL] | Average FICI with ceftazidime [8] | Interpretation of the average FICI with ceftazidime [8] | Interpretation of the lowest FICI with ceftazidime [8] | The lowest FICI with ceftazidime [8] | MIC [9] [µg/mL] | further results |
| --- | --- | --- | --- | --- | --- | --- | --- | --- | --- | --- | --- | --- | --- | --- | --- | --- | --- | --- | --- | --- | --- |
| OB(O)c1cc(B(O)O)c(F)cc1F [2c] | 0.21 | 0.17 | 89.1 ± 0.5 | 83.6 ± 2.7 | 63.8 ± 2.5 | > 400 | > 400 | > 400 | > 400 | 400 (≈ 1980 µM) | 100 (≈ 496 µM) | 400 (≈ 1980 µM) | 50 (≈ 248 µM) | 50 (≈ 248 µM) | > 400 | 0.22 | S (FICI ≤ 0.5, synergy) | S (FICI ≤ 0.5, synergy) | 0.15 | > 400 | zone of inhibition at 100 µg/disc ([3]; BAA1705, agent 0.1 mg per disc, read-out: Diameter of inhibition zone, MEM-10 disc with agent): 6 mm; zone of inhibition at 100 µg/disc ([4]; agent 0.1 mg per disc): 20 mm; zone of inhibition at 100 µg/disc ([5]; agent 0.1 mg per disc): 19 mm; zone of inhibition at 0.4 mg/disc [6, 13]: 19 mm; zone of inhibition at 0.4 mg/disc (S. aureus ATCC 6538P; [13]): 20 mm |
| OB(O)c1cccc(F)c1B(O)O [3b] | 0.43 | 0.27 | 98.1 ± 6.1 | 91.2 ± 13.5 | 87.1 ± 8 | 200 (≈ 1090 µM) | 100 (≈ 544 µM) | 200 (≈ 1090 µM) | 400 (≈ 2180 µM) | > 400 | > 400 | > 400 | 400 (≈ 2180 µM) | > 400 | 100 (≈ 544 µM) | 0.60 | I (0.5 < FICI ≤ 4, indifference) | S (FICI ≤ 0.5, synergy) | 0.27 | 200 (≈ 1090 µM) | zone of inhibition at 300 µg/disc ([3]; BAA1705, agent 0.3 mg per disc, read-out: Diameter of inhibition zone, MEM-10 disc with agent): 14 mm; zone of inhibition at 300 µg/disc ([4]; agent 0.3 mg per disc): 22 mm; zone of inhibition at 300 µg/disc ([5]; agent 0.3 mg per disc): 25 mm; zone of inhibition at 0.4 mg/disc (S. cerevisiae ATCC 9763): 13 mm; zone of inhibition at 0.4 mg/disc [7, 13]: 21 mm |
| OB(O)c1cc(F)ccc1F [7a, 2,5-difluorophenylboronic acid] | 0.17 | 0.14 | – | – | – | 25 (≈ 158 µM) | 50 (≈ 317 µM) | 50 (≈ 317 µM) | 25 (≈ 158 µM) | 400 (≈ 2530 µM) | 100 (≈ 633 µM) | 400 (≈ 2530 µM) | 100 (≈ 633 µM) | 50 (≈ 317 µM) | 50 (≈ 317 µM) | 0.17 | S (FICI ≤ 0.5, synergy) | S (FICI ≤ 0.5, synergy) | 0.10 | 25 (≈ 158 µM) | viability at 72 h, 12.5 mg/L [2]: 83 ± 2.9%; viability at 72 h, 25 mg/L [2]: 79.9 ± 3.7%; viability at 72 h, 50 mg/L [2]: 67.3 ± 3.1%; zone of inhibition at 30 µg/disc ([3]; BAA1705, agent 0.03 mg per disc, read-out: Diameter of inhibition zone, MEM-10 disc with agent): 13 mm; zone of inhibition at 30 µg/disc ([4]; agent 0.03 mg per disc): 17 mm; zone of inhibition at 30 µg/disc ([5]; agent 0.03 mg per disc): 19 mm; zone of inhibition at 0.4 mg/disc (C. tropicalis IBA 171; [14]): 25 mm; zone of inhibition at 0.4 mg/disc (S. cerevisiae ATCC 9763): 18 mm; zone of inhibition at 0.4 mg/disc (C. tropicalis ATCC 750; [14]): 21 mm; zone of inhibition at 0.4 mg/disc (C. albicans ATCC 90028; [14]): 29 mm; zone of inhibition at 0.4 mg/disc (C. krusei ATCC 6258; [14]): 15 mm; zone of inhibition at 0.4 mg/disc [9, 14]: 21 mm |
| OB(O)c1ccccc1 [PBA, phenylboronic acid, reference compound] | 0.30 | 0.15 | – | – | – | – | – | – | – | – | – | – | – | – | – | 0.10 | S (FICI ≤ 0.5, synergy) | S (FICI ≤ 0.5, synergy) | 0.07 | – | viability at 72 h, 12.5 mg/L ([2]; 12.5 mg/L, 72 h, read-out: Viability of MRC-5 cells (% of viable cells ± SD)): 81.5 ± 3.7%; viability at 72 h, 25 mg/L ([2]; 25 mg/L, 72 h, read-out: Viability of MRC-5 cells (% of viable cells ± SD)): 79.1 ± 4.4%; viability at 72 h, 50 mg/L ([2]; 50 mg/L, 72 h, read-out: Viability of MRC-5 cells (% of viable cells ± SD)): 58.7 ± 4.3%; zone of inhibition at 300 µg/disc ([3]; BAA1705, read-out: Diameter of inhibition zone, MEM-10 disc with agent): 21 mm; zone of inhibition at 300 µg/disc [4]: 24 mm; zone of inhibition at 300 µg/disc [5]: 24 mm |
